A word on the EC50: it is the concentration needed to bring the measured effect to its halfway point. What is called Ki is a measure of affinity in units of concentration, obtained from inhibition or displacement. The low end stands for a stronger hold on the target, the high end for a looser hold on the target.

Experiment [1] has as its target mouse FL5.12 cells transfected with Bcl-xL (Homo sapiens, UniProt Q07817). Description: FL5.12 cellular assay (cell viability, CellTiter-Glo). It counts as cell-based. The conditions noted are these: IL-3-depleted, 3% FBS assay media, 24 hours; read-out: FL5.12 Bcl-xL, −IL3, EC50. An excerpt: Individual determinations were the result of duplicate values.
(In general: ATP-based viability assays read luminescence as a measure of living cells.)

The target in experiment [2] is Bcl-xL (Homo sapiens, UniProt Q07817). Description: TR-FRET binding assay, competition with F-Bak for Bcl-xL. The conditions noted are these: competition with F-Bak probe, GST-Bcl-xL. In outline:
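Serially diluted compounds ([…] as 2× starting concentration, 10% DMSO) compete with F-Bak probe for Bcl-xL, detected via Tb-labelled antibody TR-FRET after 2 h at room temperature. Excitation 340 nm, emission 520/495 nm; Ki derived by Wang's equation. Can be run with human or fetal bovine serum.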

Each structure is given as a SMILES string.

Sequence of mouse FL5.12 cells transfected with Bcl-xL (Q07817 whole entry, change not shown): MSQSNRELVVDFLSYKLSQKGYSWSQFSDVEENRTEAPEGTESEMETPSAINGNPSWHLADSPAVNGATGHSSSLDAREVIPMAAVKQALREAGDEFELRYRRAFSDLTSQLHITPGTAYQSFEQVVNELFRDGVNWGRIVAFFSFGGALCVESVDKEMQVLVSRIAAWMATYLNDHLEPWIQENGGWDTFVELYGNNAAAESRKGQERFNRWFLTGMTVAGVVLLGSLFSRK
Sequence of Bcl-xL (Q07817 whole entry): as the sequence (Q07817 whole entry, change not shown) above

On to `Cc1c(-c2ccc(N3CCc4cccc(C(=O)Nc5nc6ccccc6s5)c4C3)nc2C(=O)O)cnn1CC1(OCCS(C)(=O)=O)CCCCCCC1` [Example 65, 6-[8-(1,3-benzothiazol-2-ylcarbamoyl)-3,4-dihydroisoquinolin-2(1H)-yl]-3-[5-methyl-1-({1-[2-(methylsulfonyl)ethoxy]cyclooctyl}methyl)-1H-pyrazol-4-yl]pyridine-2-carboxylic acid], for which, in experiment [1], the EC50 was found to be 1 nM. Besides, the Ki in experiment [2] is below 0.1 nM.
As to `O=C(Nc1nc2ccccc2s1)c1cccc2c1CN(c1ccc(-c3cnn(CC4CC5CCC(C4)N5C(=O)OCc4ccccc4)c3)c(C(=O)O)n1)CC2` (stereo not drawn) [Example 84, 6-[8-(1,3-benzothiazol-2-ylcarbamoyl)-3,4-dihydroisoquinolin-2(1H)-yl]-3-[1-({8-[(benzyloxy)carbonyl]-8-azabicyclo[3.2.1]oct-3-yl}methyl)-1H-pyrazol-4-yl]pyridine-2-carboxylic acid], the EC50 in experiment [1] is above 1000 nM. The Ki in experiment [2] is 0.9 nM.
For `Cc1c(-c2ccc(N3CCc4cccc(C(=O)Nc5nc6ccccc6s5)c4C3)nc2-c2nn[nH]n2)cnn1CC12CC3CC(CC(C3)C1)C2` [Example 19, N-(1,3-benzothiazol-2-yl)-2-{5-[5-methyl-1-(tricyclo[3.3.1.1^3,7]dec-1-ylmethyl)-1H-pyrazol-4-yl]-6-(2H-tetrazol-5-yl)pyridin-2-yl}-1,2,3,4-tetrahydroisoquinoline-8-carboxamide] the same measures were 3 nM and 0.1 nM.
On to `CC12CC3CC(C)(C1)CC(Cn1cc(-c4ccc(N5CCc6cccc(C(=O)Nc7nc8ccccc8s7)c6C5)nc4C(=O)O)cn1)(C3)C2` [Example 5, 6-[8-(1,3-benzothiazol-2-ylcarbamoyl)-3,4-dihydroisoquinolin-2(1H)-yl]-3-(1-{[3,5-dimethyltricyclo[3.3.1.1^3,7]dec-1-yl]methyl}-1H-pyrazol-4-yl)pyridine-2-carboxylic acid], for which, in experiment [1], the EC50 was found to be 2 nM. In addition, the Ki in experiment [2] is below 0.1 nM.
For `O=C(Nc1nc2ccccc2s1)c1cccc2c1CN(c1ccc(-c3cccc(OCC45CC6CC(CC(C6)C4)C5)c3)c(C(=O)O)n1)CC2` [Example 22, 6-[8-(1,3-benzothiazol-2-ylcarbamoyl)-3,4-dihydroisoquinolin-2(1H)-yl]-3-{3-[tricyclo[3.3.1.1^3,7]dec-1-ylmethoxy]phenyl}pyridine-2-carboxylic acid], in experiment [1], the EC50 was above 1000 nM. Besides, the affinity in experiment [2], expressed as Ki, was 1 nM.
For `Cc1c(-c2ccc(N3CCc4cccc(C(=O)Nc5nc6ccccc6s5)c4C3)nc2C(=O)NS(=O)(=O)C2CC2)cnn1CC12CC3CC(CC(C3)C1)C2` [Example 18, N-(1,3-benzothiazol-2-yl)-2-{6-[(cyclopropylsulfonyl)carbamoyl]-5-[5-methyl-1-(tricyclo[3.3.1.1^3,7]dec-1-ylmethyl)-1H-pyrazol-4-yl]pyridin-2-yl}-1,2,3,4-tetrahydroisoquinoline-8-carboxamide], the EC50 in experiment [1] was 1 nM. The same compound displayed a Ki in experiment [2] below 0.1 nM.
Consider `Cc1c(-c2ccc(N3CCc4cccc(C(=O)Nc5nc6cccnc6s5)c4C3)nc2C(=O)O)cnn1CC12CC3CC(CC(C3)O1)C2` [Example 67, 3-[5-methyl-1-(2-oxatricyclo[3.3.1.1^3,7]dec-1-ylmethyl)-1H-pyrazol-4-yl]-6-[8-([1,3]thiazolo[5,4-b]pyridin-2-ylcarbamoyl)-3,4-dihydroisoquinolin-2(1H)-yl]pyridine-2-carboxylic acid], for which the EC50 in experiment [1] was determined as 9 nM. Also, the Ki in experiment [2] is below 0.1 nM.
For `Cc1c(-c2ccc(N3CCc4cccc(C(=O)Nc5nc6ccncc6s5)c4C3)nc2C(=O)O)cnn1CC12CC3CC(CC(C3)C1)C2` [Example 78, 3-[5-methyl-1-(tricyclo[3.3.1.1^3,7]dec-1-ylmethyl)-1H-pyrazol-4-yl]-6-[8-([1,3]thiazolo[5,4-c]pyridin-2-ylcarbamoyl)-3,4-dihydroisoquinolin-2(1H)-yl]pyridine-2-carboxylic acid], in experiment [1], the EC50 turned out to be 3 nM. Moreover, the Ki in experiment [2] was below 0.1 nM.
As for `Cc1c(-c2ccc(N3CCc4cccc(C(=O)Nc5nc6ccccc6s5)c4C3)nc2C(=O)NS(C)(=O)=O)cnn1CC12CC3CC(CC(C3)C1)C2` [Example 17, N-(1,3-benzothiazol-2-yl)-2-{6-[(methylsulfonyl)carbamoyl]-5-[5-methyl-1-(tricyclo[3.3.1.1^3,7]dec-1-ylmethyl)-1H-pyrazol-4-yl]pyridin-2-yl}-1,2,3,4-tetrahydroisoquinoline-8-carboxamide], the EC50 in experiment [1] was found to be 1 nM. For the same compound, the Ki in experiment [2] is below 0.1 nM.
For `Cc1c(-c2ccc(N3CCc4cccc(C(=O)Nc5nc6ccccc6s5)c4C3)nc2C(=O)O)cnn1CC12CC3CC(C)(CC(C)(C3)C1)C2` [Example 32, 6-[8-(1,3-benzothiazol-2-ylcarbamoyl)-3,4-dihydroisoquinolin-2(1H)-yl]-3-(1-{[3,5-dimethyltricyclo[3.3.1.1^3,7]dec-1-yl]methyl}-5-methyl-1H-pyrazol-4-yl)pyridine-2-carboxylic acid] the same measures were 1 nM and below 0.1 nM.
`COC1(Cn2ncc(-c3ccc(N4CCc5cccc(C(=O)Nc6nc7ccccc7s6)c5C4)nc3C(=O)O)c2C)CCCC2(CC2)C1` (stereo not drawn) [Example 79, 6-[8-(1,3-benzothiazol-2-ylcarbamoyl)-3,4-dihydroisoquinolin-2(1H)-yl]-3-{1-[(5-methoxyspiro[2.5]oct-5-yl)methyl]-5-methyl-1H-pyrazol-4-yl}pyridine-2-carboxylic acid]: the EC50 in experiment [1] worked out at 0.9 nM. For the same compound, in experiment [2], the Ki is below 0.1 nM.
In the case of `N#Cc1c(-c2ccc(N3CCc4cccc(C(=O)Nc5nc6ccccc6s5)c4C3)nc2C(=O)O)cnn1CC12CC3CC(CC(C3)C1)C2` [Example 29, 6-[8-(1,3-benzothiazol-2-ylcarbamoyl)-3,4-dihydroisoquinolin-2(1H)-yl]-3-{5-cyano-1-[tricyclo[3.3.1.1^3,7]dec-1-ylmethyl]-1H-pyrazol-4-yl}pyridine-2-carboxylic acid], the EC50 in experiment [1] was determined as 3 nM. This compound gave a Ki in experiment [2] below 0.1 nM.
For `Cc1c(-c2ccc(N3Cc4c(C(=O)Nc5nc6ccccc6s5)cccc4C(C)(C)C3)nc2C(=O)O)cnn1CC12CC3CC(CC(C3)C1)C2` [Example 14, 6-[8-(1,3-benzothiazol-2-ylcarbamoyl)-4,4-dimethyl-3,4-dihydroisoquinolin-2(1H)-yl]-3-[5-methyl-1-(tricyclo[3.3.1.1^3,7]dec-1-ylmethyl)-1H-pyrazol-4-yl]pyridine-2-carboxylic acid] the same measures were below 1 nM and 0.2 nM.
Turning to `Cc1c(-c2ccc(N3CCc4cccc(C(=O)Nc5nc6ccccc6s5)c4C3)nc2C(=O)NS(=O)(=O)C2CC2)cc(C#N)n1CC12CC3CC(CC(C3)C1)C2` [Example 36, N-(1,3-benzothiazol-2-yl)-2-{5-[5-cyano-2-methyl-1-(tricyclo[3.3.1.1^3,7]dec-1-ylmethyl)-1H-pyrrol-3-yl]-6-[(cyclopropylsulfonyl)carbamoyl]pyridin-2-yl}-1,2,3,4-tetrahydroisoquinoline-8-carboxamide], the EC50 in experiment [1] was 0.8 nM. Further, in experiment [2], affinity was put at a Ki of 0.3 nM.
Take `Cc1c(OC23CC4CC(CC(C4)C2)C3)cccc1-c1ccc(N2CCc3cccc(C(=O)Nc4nc5ccccc5s4)c3C2)nc1C(=O)O` [Example 28, 6-[8-(1,3-benzothiazol-2-ylcarbamoyl)-3,4-dihydroisoquinolin-2(1H)-yl]-3-{2-methyl-3-[tricyclo[3.3.1.1^3,7]dec-1-yloxy]phenyl}pyridine-2-carboxylic acid]: in experiment [1], the half-maximal effective concentration (EC50) was determined as 22 nM. Further, the Ki in experiment [2] was 0.5 nM.
